Columns and labels:
[1] = Storage stability (40° C., 75% RH, 6 months; HPLC); format: physicochemical
Protocol: The form I dry crystals and the form II crystals of Compound (I) were used as samples. About 3 g of each of the samples was placed in a double polyethylene bag, and the bag containing the sample was stored in an aluminum can at 40° C. and 75% RH. After storage for 6 months, the amount of Compound (I) and the total amount of related substances of Compound (I) were measured by HPLC.

[2] = Stability against light (30±2° C., 1,200,000 or 3,600,000 Lux·hr; HPLC); format: physicochemical; conditions: for change of total amount of related substances of Compound (I) (in words): after storage under light of 1,200,000 or 3,600,000 Lux·hr
Protocol: The form I dry crystals and the form II crystals of Compound (I) were used as samples. About 3 g of each of the samples was placed in each petri dish, and was then stored at an average temperature of 30±2° C. under light of 1,200,000 Lux·hr or 3,600,000 Lux·hr. After storage, the amount of Compound (I) and the total amount of related substances of Compound (I) were measured by HPLC.

[3] = 6 months at 40° C. and 75% RH, double polyethylene bag in aluminum can
[4] = 1,200,000 Lux·hr, 30±2° C., petri dish

Amount of analogue B ([1]; 6 months at 40° C. and 75% RH) [%] | Total amount of related substances(%) ([1]; 6 months at 40° C. and 75% RH) | Amount of Compound (I)(%) [1, 3] [%] | Amount of Compound (I)(%) ([1]; Initial value) | Amount of analogue B ([1]; Initial value) [%] | Total amount of related substances(%) ([1]; Initial value) | change of amount of analogue B (in words) ([1]; after storage for 6 months at 40° C. and 75% RH) | change of total amount of related substances of Compound (I) (in words) ([1]; after storage for 6 months at 40° C. and 75% RH, listed as form I dry crystals) | Total amount of related substances(%) ([2]; 1,200,000 Lux·hr, 30±2° C.) | Amount of Compound (I)(%) [2, 4] [%] | Amount of Compound (I)(%) ([2]; Initial value) | Total amount of related substances(%) ([2]; Initial value) | change of total amount of related substances of Compound (I) (in words) ([2]; listed as form I dry crystals) | storage stability (in words) ([1]; 6 months at 40° C. and 75% RH) | change of total amount of related substances of Compound (I) (in words) ([1]; after storage for 6 months at 40° C. and 75% RH, listed as form II crystals) | Total amount of related substances(%) ([2]; 3,600,000 Lux·hr, 30±2° C.) | Amount of Compound (I)(%) ([2]; 3,600,000 Lux·hr, 30±2° C., petri dish) | change of total amount of related substances of Compound (I) (in words) ([2]; listed as form II crystals) | stability against light (in words) ([2]; light of 1,200,000 or 3,600,000 Lux·hr) | Structure (SMILES)
0.21 | 0.43 | 97.8 | 99.8 | <0.05 | 0.16 | significantly increased | increased | 0.27 | 99.2 | 99.8 | 0.16 | increased |  |  |  |  |  |  | CC1(C)CC[C@]2(C(=O)O)CC[C@]3(COC(=O)/C=C/c4cc(O)ccc4NC(=O)/C=C/C(=O)O)C(=CCC4[C@@]5(C)CCC(=O)C(C)(C)C5CC[C@]43C)C2C1 (some centres unmarked) [Form I dry crystal, reference compound]
<0.05 | 0.17 | 98.6 | 98.9 | <0.05 | 0.21 |  |  | 0.17 | 99.4 | 100.3 | 0.15 |  | stable | hardly changed | 0.18 | 99.3 | hardly changed | stable against light | CC1(C)CC[C@]2(C(=O)O)CC[C@]3(COC(=O)/C=C/c4cc(O)ccc4NC(=O)/C=C/C(=O)O)C(=CCC4[C@@]5(C)CCC(=O)C(C)(C)C5CC[C@]43C)C2C1 (some centres unmarked) [Form II crystal]
